Measurements reported in patent US20220119446A1, “BIOMARKERS AND TREATMENT OF NEURONAL INJURY AND NEURODEGENERATION” (Board of Supervisons of Louisiana State University and …, priority 2018, published 2022).
“Also recorded” adds a separate entry of the source. * marks the point of attachment. Boc = CC(C)(C)OC(=O)*

Tests used:
Assay type in all cases: cell-based, human
ARPE-19 cells and hpRPE = assay: Apoptosis by Hoechst staining in RPE cells under UOS; settings: for apoptosis by UOS in the presence of the Wnt ligand: RPE cells under UOS with recombinant Wnt5a; for cell death by UOS on addition of Wnt5a: ARPE-19 cells and hpRPE under UOS, Wnt5a 50 ng/ml
Protocol: ARPE-19 cells, can be plated and grown in DMEM/F-12 containing 10% FBS and 1× penicillin/streptomycin at 37° C., 5% CO2, 99% relative humidity for 24 h. […] 15-LOX-1 deficient cells can be maintained in the same medium as ARPE-19 with the addition of 500 μg/mL Geneticin (Life Technologies Corporation, Carlsbad, Calif.). Transfection can be performed in all cases using Lipofectamine 2000 (Life Technologies Corporation, Carlsbad, Calif.) following the manufacturer's recommendations. […] Experiments with transfection efficiency that yielded less than 80% can be discarded. For siRNA, we used 6 μl of Lipofectamine 2000 per 50 pmol of siRNA per mL of incubation medium, and, for plasmids, we used 6 μl of Lipofectamine 2000 per 2 μg of plasmid per mL of incubation medium. Cells can be incubated for 5 hours at 37° C., 5% CO2 and 99% relative humidity. […] When siRNA/plasmid co-transfection is required, siRNA and plasmid-carrying transfection mixes can be prepared separately and added one after the other in the same well. Oxidative stress treatments can be performed using 600 (ARPE-19) or 1600 (hRPE) μM H2O2, along with 10 ng/mL TNFα, for the required time indicated in each experiment. The treatment we used employed the low serum (0.5% serum) without hFGF. Treatment to induce uncompensated oxidative stress (UOS) can be performed after 8 hours of low-serum medium incubation unless specifically noted. Wnt5a, Wnt3a or NPD1 can be added immediately before induction of UOS. In the secretion experiments, Pitstop 2 can be added to the medium 2 hours before harvesting.
(§1) Immunostaining can be performed in 8-well slide chambers and the Hoechst staining in 24-well plates. […] Briefly, cells can be fixed using 4% paraformaldehyde in PBS 1× for 20 min at room temperature or overnight at 4° C. After three washes with PBS, cells can be permeabilized using 0.1% Triton™ X-100 for five minutes and blocked using 10% normal serum and 1% BSA for one hour. […] Hoechst staining can be performed using same protocol of fixation. In one embodiment, permeabilization is done using methanol for 20 min at room temperature. […] Dying cells can be identified by size (0 to 50 pixels), intensity threshold, and circularity. The ratio of hyperpyknotic cells over the total can be calculated for nine randomly chosen fields per sample obtained from three independent wells per experiment. Each experiment can be repeated at least three times to confirm the findings.
ARPE-19 cells, were plated and grown in DMEM/F-12 containing 10% FBS and 1× penicillin/streptomycin at 37° C., 5% CO2, 99% relative humidity for 24 h. […] 15-LOX-1 deficient cells were maintained in the same medium as ARPE-19 with the addition of 500 μg/mL Geneticin (Life Technologies Corporation). Transfection was performed in all cases using Lipofectamine 2000 (Life Technologies Corporation) following the manufacturer's recommendations. […] Experiments with transfection efficiency that yielded less than 80% were discarded. For siRNA, we used 6 μl of Lipofectamine 2000 per 50 pmol of siRNA per mL of incubation medium, and, for plasmids, we used 6 μl of Lipofectamine 2000 per 2 μg of plasmid per mL of incubation medium. Cells were incubated for 5 hours at 37° C., 5% CO2 and 99% relative humidity. […] When siRNA/plasmid co-transfection was required, siRNA and plasmid-carrying transfection mixes were prepared separately and added one after the other in the same well. […] The treatment we used employed the low serum (0.5% serum) without hFGF. Treatment to induce uncompensated oxidative stress (UOS) was performed after 8 hours of low-serum medium incubation unless specifically noted. Wnt5a, Wnt3a or NPD1 was added immediately before induction of UOS.

Wnt5a/FZD5 = assay: Immunocytochemistry of Wnt5a/FZD5 colocalization and vesicles in hpRPE cells; settings: for size of FZD5/Wnt5a vesicles: Wnt5a added; for size of FZD5/Wnt5a vesicles / vesicle load (mean intensity per vesicle) / intensity and number of Wnt5a-positive vesicles / number of FZD5-positive vesicles: IMARIS; for vesicle load (mean intensity per vesicle): external Wnt5a added; for number of Wnt5a/FZD5 colocalized vesicles per field: UOS 1600 μM H2O2, 2 hours, +/− 50 ng/ml Wnt5a, no Pitstop2
Protocol: To ascertain localization and interaction between FZD5 and Wnt5a we incubated hpRPE undergoing UOS with Wnt5a+/−NPD1 or other lipid mediators.
as §1
In an embodiment involving early stages of apoptosis, the total number of cells per field is assessed and counted to ensure unbiased observations. […] Settings can be adjusted in the conditions that show higher intensity and can be used throughout the remaining samples. In an embodiment, Pearson's colocalization coefficient (PCC) is obtained using FV1200 analysis software for every field in each experiment, and the mean and SEM are depicted in FIGS. 7-11.
Immunostaining was performed in 8-well slide chambers and the Hoechst staining in 24 well plates. […] Briefly, cells were fixed using 4% paraformaldehyde in PBS 1× for 20 min at room temperature or overnight at 4° C. After three washes with PBS, cells were permeabilized using 0.1% Triton™ X-100 for five minutes and blocked using 10% normal serum and 1% BSA for one hour. […] Hoechst staining was performed using same protocol of fixation, but permeabilization was done using methanol for 20 min at room temperature. […] Dying cells were identified by size (0 to 50 pixels), intensity threshold and circularity. The ratio of hyperpyknotic cells over the total was calculated for nine randomly chosen fields per sample obtained from three independent wells per experiment. Each experiment was repeated at least three times to confirm the findings. In the experiments involving early stages of apoptosis, we assessed the total number of cells per field and counted them to ensure unbiased observations. […] Pearson's colocalization coefficient (PCC) was obtained using FV1200 analysis software for every field in each experiment, and the mean and SEM are depicted in Figures S1-S5. […] IMARIS software analysis was performed building a colocalization channel using the Costes thresholding, and the colocalized elements were analyzed using the spots function using the settings different spots sites, background subtraction and local contrast. The output obtained consisted on a collection of sizes (one per element in each picture) or the mean of the intensity in each spot.

β-catenin = assay: TOP Flash/FOP flash luciferase reporter in hpRPE cells; settings: hpRPE cells undergoing UOS+/−NPD1
Text: We tested whether or not Wnt5a activates […] using TOP Flash/FOP flash reporter system in hpRPE cells undergoing UOS+/−NPD1 (FIG. 1g).
Except TOP/FOP flash, the Luciferase activity can be standardized using a construct expressing GFP constitutively under CMV virus promoter. To assess luciferase activity, cell lysates can be obtained using Passive Lysis Buffer (Promega, Madison, Wis.) and mixed with a luciferase assay reagent (Promegam Madison, Wis.). Chemiluminescence produced by luciferase and fluorescence from GFP can be detected using Appliscan 2.3. Data can be analyzed using SkanIt 2.3 (Thermo Fisher Scientific, Waltham, Mass.).
Except TOP/FOP flash, the Luciferase activity was standardized using a construct expressing GFP constitutively under CMV virus promoter. To assess luciferase activity, cell lysates were obtained using Passive Lysis Buffer (Promega) and mixed with a luciferase assay reagent (Promega). Chemiluminescence produced by luciferase and fluorescence from GFP was detected using Appliscan 2.3. Data were analyzed using SkanIt 2.3 (Thermo Fisher Scientific).

Row | Molecule | UOS-dependent NFkB activation and apoptosis (FIG. 18B legend) (ARPE-19 cells and hpRPE) | apoptosis by UOS in the presence of the Wnt ligand (ARPE-19 cells and hpRPE; Hoechst staining) | size of FZD5/Wnt5a vesicles (Wnt5a/FZD5; hpRPE under UOS) | mode of Wnt5a and FZD5 signal intensity (Wnt5a/FZD5; hpRPE under UOS, absence of rWnt5a) | vesicle load (mean intensity per vesicle) (Wnt5a/FZD5; hpRPE under UOS) | intensity and number of Wnt5a-positive vesicles (Wnt5a/FZD5; hpRPE under UOS) | number of FZD5-positive vesicles (Wnt5a/FZD5; hpRPE under UOS) | number of Wnt5a/FZD5 colocalized vesicles per field (Wnt5a/FZD5; hpRPE) | quantity of large only-Wnt5a positive spots (Wnt5a/FZD5; hpRPE, absence of Wnt5a) | β-catenin activity (luciferase) (β-catenin) | apoptosis in cells only exposed to UOS (ARPE-19 cells and hpRPE; no Wnt5a added, Hoechst staining) | cell death by UOS on addition of Wnt5a (ARPE-19 cells and hpRPE) | cell death by UOS on addition of Wnt5a (ARPE-19 cells and hpRPE; listed as Recombinant Wnt5a) | effect of Wnt5a alone on RPE cells (apoptosis) (ARPE-19 cells and hpRPE; resting cells, no UOS)
1 | CC/C=C\C[C@H](O)\C=C/C=C/C=C/[C@H](O)C/C=C\C/C=C\CCC(=O)O [NPD1, 10R,17S-dihydroxy-docosa-4Z,7Z,11E,13E,15Z,19Z-hexaenoic acid] | counteracted these effects | blocked apoptosis; also recorded: hindered apoptosis | Neither NPD1 nor Box5 affected the magnitude of the Wnt5a effect | restore both modes to control levels | higher Wnt5a/FZD5 and FZD5/Clathrin vesicle intensity when Wnt5a was added | difference in mean intensity distribution | decrease the number of FZD5-positive vesicles | brought down the number of vesicles per field; also recorded: had the same effect; also recorded: decreased the amount of vesicles per field | increased | not significantly altered | – | – | – | –
2 | t-Boc-NH-Met-Asp-Gly-Cys-Glu-Leu-CO2H (Boc-MDGCEL-OH) [Box5] | – | blocked apoptosis; also recorded: hindered apoptosis | Neither NPD1 nor Box5 affected the magnitude of the Wnt5a effect | – | did not affected vesicle loads that showed FZD5/clathrin or Wnt5a/clathrin signal | did not modify the increase in intensity and number induced by UOS | decrease the number of FZD5-positive vesicles | decreased Wnt5a induction | – | – | decreased apoptosis; also recorded: prevented cell death | – | – | –
3 | Wnt5a: Recombinant Human/Mouse Wnt-5a Protein, CHO-derived (Gln38-Lys380), R&D systems 645-WN (protein) QVVIEANSWWSLGMNNPVQMSEVYIIGAQPLCSQLAGLSQGQKKLCHLYQDHMQYIGEGAKTGIKECQYQFRHRRWNCSTVDNTSVFGRVMQIGSRETAFTYAVSAAGVVNAMSRACREGELSTCGCSRAARPKDLPRDWLWGGCGDNIDYGYRFAKEFVDARERERIHAKGSYESARILMNLHNNEAGRRTVYNLADVACKCHGVSGSCSLKTCWLQLADFRKVGDALKEKYDSAAAMRLNSRGKLVQVNSRFNSPTTQDLVYIDPSPDYCVRNESTGSLGTQGRLCNKTSEGMDGCELMCCGRGYDQFKTVQTERCHCKFHWCCYVKCKKCTEIVDQFVCK | – | – | – | – | – | – | – | increased the number of vesicles that co-localize with FZD5 | – | did not affect β-catenin; also recorded: does not affect activation of β-catenin | – | enhanced cell death triggered by H2O2; also recorded: enhances the percentage of cell death induced by UOS | potentiated cell death by UOS | no effect
